Assay results as given in US9937186B2, “Sulfonamides derived from tricyclyl-2-aminocycloalkanols as anticancer agents” (ICAHN SCHOOL OF MEDICINE AT MOUNT SINAI, priority 2014, dated 2018).

Key:
Assay type in all cases: cell-based
H1650 lung cancer cells = experiment: Cell viability assay (MTT), H1650 lung cancer cells; settings: for GI50 / IC50: Homo sapiens, NCI-H1650; for IC50: H1650 lung cancer cells, 48 h drug treatment, MTT
Method: Cell Viability Assays (IC50 Determination)
Cell viability assays were performed according to Denizot, F. and R. Lang, Journal of Immunological Methods, 1986. 89(22): p. 271-277. H1650 lung cancer cells were plated at 150,000 cells per well in a 12 well plate. Twenty-four hours after plating, cells were treated as described with increasing concentrations of drug and control. Forty-eight hours after drug treatment, cells were treated with 100 μL of 3-(4,5-Dimethylthiazol-2-yl)-2,5-diphenyltetrazolium bromide (MTT) and incubated for 2 hours at 37 C. The MTT solution was subsequently replaced with 300 μL of n-propyl alcohol and re-aliquoted to a 96 well plate. Spectrophotometric analysis of each solution was performed using a 96 well plate reader at 600 nm in triplicate.

H1650 cells = experiment: Colony formation (clonogenic) assay, H1650 cells; settings: Homo sapiens, NCI-H1650, 192 h; H1650, harvested 8 days after initial treatment
Method: (§1) Protocol for clonogenic assay follows Sangodkar et al., J Clin Invest 2012; 122:2637-51.
(§2) Cell culture and staining: For both A549luc and H1650 cells, 500 cells are seeded into each well of a 6-well plate and allowed to attach for 24 hours before drug treatment. The following day, cells are treated with either the appropriate dose of drug or an equivalent volume of DMSO (two replicates were treated for each condition). For each condition, depleted media was replaced with fresh media containing the equivalent drug dose four days after initial treatment. Cells are harvested either 7 (A549 luc) or 8 (H1650) days after initial treatment. Briefly, medium is aspirated from each well and the cells are washed twice with ice-cold PBS, then plates are allowed to dry at room temperature for 4 hours. Cells are fixed for one hour in a fixing solution consisting of 10% methanol and 10% glacial acetic acid in distilled water, then stained overnight in 1% (w/v) crystal violet dissolved in methanol. The next day, staining solution is aspirated from the wells and plates are washed gently with distilled water to remove excess stain before colony counting. Colonies are imaged on a ChemiDoc XRS+ (Bio-Rad) and images are exported as 8-bit TIFF files. Colonies are counted using the Colony Counter plugin in ImageJ, with colony size defined as between 4 and 400 square pixels, and minimum circularity set at 0.6. Duplicate wells are averaged to obtain a single value for each condition. Results (number of colonies) for A549 luc cells and results (number of colonies) for H1650 cells may be analyzed separately.

A549luc cells = experiment: Colony formation (clonogenic) assay, A549luc cells; settings: Homo sapiens, 168 h; A549 luc, harvested 7 days after initial treatment
Method: as §1, §2

| SMILES | GI50 (H1650 lung cancer cells; H1650 cells) [µM] | IC50 (H1650 lung cancer cells) [µM] | other results |
| --- | --- | --- | --- |
| O=S(=O)(N[C@@H]1CCCC(N2c3ccccc3Oc3ccccc32)[C@H]1O)c1ccc(OC(F)(F)F)cc1 (mixture of isomers) [Example 1, N-(2-hydroxy-3-(10H-phenoxazin-10-yl)cyclohexyl)-4-(trifluoromethoxy)benzenesulfonamide] | 5 | 5 | GI50 (H1650 cells): 5 µM; GI50 (A549luc cells): 7.5 µM |
| O=S(=O)(N[C@@H]1CCCC(N2c3ccccc3COc3ccccc32)[C@H]1O)c1ccc(OC(F)(F)F)cc1 (mixture of isomers) [Example 2, N-((1R,2R,3S)-rel-3-(dibenzo[b,e][1,4]oxazepin-5(11H)-yl)-2-hydroxycyclohexyl)-4-(trifluoromethoxy)benzenesulfonamide] | 20 | 20 |  |
| O=S(=O)(N[C@@H]1CCCC(n2c3ccccc3c3ccccc32)[C@H]1O)c1ccc(OC(F)(F)F)cc1 (mixture of isomers) [Example 3, (1S,2S,3R)-rel-N-(3-(9H-carbazol-9-yl)-2-hydroxycyclohexyl)-4-(trifluoromethoxy)benzenesulfonamide] | 10 | 10 | GI50 (H1650 cells): 5 µM; GI50 (A549luc cells): 7.5 µM |
| O=S(=O)(N[C@@H]1CCCC(N2c3ccccc3Oc3ccccc32)[C@H]1O)c1ccc(SC(F)(F)F)cc1 (mixture of isomers) [Example 16] | 10 |  |  |
| O=S(=O)(N[C@@H]1CCCC(N2c3ccccc3Oc3ccccc32)[C@H]1O)c1ccc(OC(F)(F)F)cc1Cl (mixture of isomers) [Example 17] | 15 |  |  |
| O=S(=O)(N[C@@H]1CCCC(N2c3ccccc3Oc3ccccc32)[C@H]1O)c1ccc(CC(F)(F)F)cc1 (mixture of isomers) [Example 18] | 15 |  |  |
| O=S(=O)(N[C@@H]1CCCC(N2c3ccccc3Oc3ccccc32)[C@H]1O)c1ccc(C(F)(F)C(F)(F)F)cc1 (mixture of isomers) [Example 19] | 10 |  |  |
| O=S(=O)(N[C@@H]1CCCC(N2c3ccccc3Oc3ccccc32)[C@H]1O)c1ccc(OC(F)F)cc1 (mixture of isomers) [Example 20] | 25 |  |  |
| O=S(=O)(N[C@@H]1CCCC(N2c3ccccc3Oc3ccccc32)[C@H]1O)c1ccc(OC(F)(F)F)c(Cl)c1 (mixture of isomers) [Example 21] | 15 |  |  |
| O=S(=O)(N[C@@H]1CCCC(n2c3ccc(Cl)cc3c3cc(Cl)ccc32)[C@H]1O)c1ccc(OC(F)(F)F)cc1 (mixture of isomers) [Example 22] | 5 |  |  |
| O=S(=O)(N[C@@H]1CCCC(n2c3ccc(Cl)cc3c3cc(Cl)ccc32)[C@H]1O)c1ccc(Cl)cc1 (mixture of isomers) [Example 23] | 5 |  |  |
| O=S(=O)(N[C@@H]1CCCC(n2c3ccc(Br)cc3c3cc(Br)ccc32)[C@H]1O)c1ccc(OC(F)(F)F)cc1 (mixture of isomers) [Example 24] | 5 |  |  |
| O=S(=O)(N[C@@H]1CCCC(n2c3ccc(Br)cc3c3cc(Br)ccc32)[C@H]1O)c1ccc(Cl)cc1 (mixture of isomers) [Example 25] | 15 |  |  |
| N#Cc1ccc2c(c1)c1cc(C#N)ccc1n2C1CCC[C@@H](NS(=O)(=O)c2ccc(OC(F)(F)F)cc2)[C@@H]1O (mixture of isomers) [Example 26] |  |  | H1650 GI50 (H1650 lung cancer cells; H1650 cells): Weak |
| N#Cc1ccc2c(c1)c1cc(Br)ccc1n2C1CCC[C@@H](NS(=O)(=O)c2ccc(OC(F)(F)F)cc2)[C@@H]1O (mixture of isomers) [Example 27] | 5 |  |  |
| N#Cc1ccc2c(c1)c1ccccc1n2C1CCC[C@@H](NS(=O)(=O)c2ccc(OC(F)(F)F)cc2)[C@@H]1O (mixture of isomers) [Example 28] | 10 |  |  |
| COC(=O)c1ccc2c(c1)c1ccccc1n2C1CCC[C@@H](NS(=O)(=O)c2ccc(OC(F)(F)F)cc2)[C@@H]1O (mixture of isomers) [Example 29] | 15 |  |  |
| O=S(=O)(N[C@@H]1CCCC(n2c3ccccc3c3cc(Br)ccc32)[C@H]1O)c1ccc(OC(F)(F)F)cc1 (mixture of isomers) [Example 30] | 5 |  |  |
| O=S(=O)(N[C@@H]1CCCC(n2c3ccccc3c3ccccc32)[C@H]1O)c1ccc(Cl)cc1 (relative stereo) [Example 4, N-((1S,2S,3R)-rel-3-(9H-carbazol-9-yl)-2-hydroxycyclohexyl)-4-chlorobenzenesulfonamide] | 15 | 15 |  |
| N#Cc1ccc(S(=O)(=O)N[C@@H]2CCCC(n3c4ccccc4c4ccccc43)[C@H]2O)cc1 (relative stereo) [Example 5, N-((1S,2S,3R)-rel-3-(9H-carbazol-9-yl)-2-hydroxycyclohexyl)-4-cyanobenzenesulfonamide] | 20 | 20 |  |
| COc1ccc(S(=O)(=O)N[C@@H]2CCCC(n3c4ccccc4c4ccccc43)[C@H]2O)cc1 (relative stereo) [Example 6, N-((1S,2S,3R)-rel-3-(9H-carbazol-9-yl)-2-hydroxycyclohexyl)-4-methoxybenzenesulfonamide] | 20 | 20 |  |
| O=S(=O)(N[C@@H]1CCCC(n2c3ccccc3c3ccccc32)[C@H]1O)c1ccccc1 (relative stereo) [Example 7, N-((1S,2S,3R)-rel-3-(9H-carbazol-9-yl)-2-hydroxycyclohexyl) benzenesulfonamide] | 25 | 25 |  |
| CN1C(=O)c2ccccc2N(C2CCC[C@@H](NS(=O)(=O)c3ccc(OC(F)(F)F)cc3)[C@@H]2O)c2ccccc21 (relative stereo) [Example 8, 4-Trifluoromethoxy-N-((1S,2S,3R)-rel-2-hydroxy-3-(10-methyl-11-oxo-10,11-dihydro-5H-dibenzo[b,e][1,4]diazepin-5-yl)cyclohexyl)benzenesulfonamide] | 15 | 15 |  |
| CN1C(=O)c2ccccc2N(C2CCC[C@@H](NS(=O)(=O)c3ccc(Cl)cc3)[C@@H]2O)c2ccccc21 (relative stereo) [Example 9, 4-Chloro-N-((1S,2S,3R)-rel-2-hydroxy-3-(10-methyl-11-oxo-10,11-dihydro-5H-dibenzo[b,e][1,4]diazepin-5-yl)cyclohexyl)benzenesulfonamide] | 25 | 25 |  |
| O=S(=O)(N[C@H]1CCC[C@@H](N2c3ccccc3Oc3ccccc32)[C@@H]1O)c1ccc(OC(F)(F)F)cc1 (single isomer, unassigned) [Example 1b] | 5 |  | GI50 (H1650 cells): 5 µM; GI50 (A549luc cells): 7.5 µM |
| O=S(=O)(N[C@H]1CCC[C@@H](n2c3ccccc3c3ccccc32)[C@@H]1O)c1ccc(OC(F)(F)F)cc1 (single isomer, unassigned) [Example 3b] | 10 |  | GI50 (H1650 cells): 7.5 µM; GI50 (A549luc cells): 10 µM |
| O=S(=O)(N[C@H]1CCC[C@@H](n2c3ccccc3c3cc(F)ccc32)[C@@H]1O)c1ccc(OC(F)(F)F)cc1 (stereo in doubt) [Example 31b, N-((1S,2S,3R)-3-(3-fluoro-9H-carbazol-9-yl)-2-hydroxycyclohexyl)-4-(trifluoromethoxy)benzenesulfonamide] | 5 |  |  |
| O=S(=O)(N[C@H]1CCC[C@@H](n2c3ccccc3c3cc(F)ccc32)[C@@H]1O)c1ccc(OC(F)(F)F)cc1 [Example 31a, N-((1S,2S,3R)-3-(3-fluoro-9H-carbazol-9-yl)-2-hydroxycyclohexyl)-4-(trifluoromethoxy)benzenesulfonamide] | 5 |  |  |
| O=S(=O)(N[C@H]1CCC[C@@H](n2c3ccc(F)cc3c3cc(F)ccc32)[C@@H]1O)c1ccc(OC(F)(F)F)cc1 [Example 32a, N-((1S,2S,3R)-3-(3,6-difluoro-9H-carbazol-9-yl)-2-hydroxycyclohexyl)-4-(trifluoromethoxy)benzenesulfonamide] | 5 |  |  |
| O=S(=O)(N[C@@H]1CCC[C@H](n2c3ccc(F)cc3c3cc(F)ccc32)[C@H]1O)c1ccc(OC(F)(F)F)cc1 [Example 32b] | 5 |  |  |
